Where a name gives a salt, the structure may show the parent alone.
Columns and labels:
[1] = system: aminopeptidases; experiment: In situ nasal perfusion: disappearance of 100 µM Tyr-Phe-Met-Arg-Phe-NH₂ in the nasal perfusate; assay type: in vivo, Sprague-Dawley rats; details: 100 µM peptide, 2 µM Boroleucine
Protocol: The method involved the use of Sprague-Dawley rats weighing approximately 300 grams. Each rat was anesthetized with sodium pentobarbitol (50 mg/kg). An incision was made in the neck and the trachea was canulated with PE 240 tubing. For the in situ studies, a second tube, which served to introduce the perfusing solution, was inserted through the esophagus to the posterior part of the nasal cavity. The nasopalatine was closed with an adhesive to prevent drainage of the perfusing solution from the nasal to the oral cavity. For the in vivo in situ studies, the esophagus was canulated using PE 240 tubing closed at one end. The closed end was pushed to the posterior end of the nasal passage and then tied in place. The nasopalatine was closed with an adhesive to prevent drainage of the perfusing solution from the nasal to the oral cavity. The rats were dosed in one nostril with 50 µl of peptide solution in two forms; the control solution had no inhibitor added, the test solution had inhibitor added at concentrations specified in the examples shown below. The dosing solution was 0.1 M phosphate buffer (pH 7.4). At certain time intervals (one rat/time interval), the drug was washed from the nose via the other nostril with 10 ml of 0.1 M phosphate buffer (pH 3.8) using a peristaltic pump. The nasal washing was then placed in a 10 ml volumetric flask and adjusted to 10 ml with the same buffer and analyzed for the peptide by HPLC.
The analysis of leucine enkephalin and its major metabolite involved taking aliquots of samples, diluting them with 200 µl of 0.1 M citric acid (pH 2.3) to quench hydrolysis and subjecting the samples to analysis (for in vivo in situ studies, the washings were injected as they were obtained). High Pressure Liquid Chromatography (HPLC) was run on a 4.6 x 250 mm C₈ column. The mobile phase consisted of 0.1 M NaH₂PO₄-H₃PO₄-acetonitrile (916 : 5 : 275) and was delivered at a flow rate of 1.7 ml/min. Detection was by UV at 210 nm. Retention times for leucine enkephalin and its major degradation product, Des-Tyr-leucine enkephalin were 7.3 and 4.8 min., respectively. Data were calculated as % of leucine enkephalin remaining in the nasal perfusate as a function of time, counting the concentration at zero time as 100%.
A 10 ml portion of the peptide solution was placed in a water-jacketed container, maintained at 37°C and circulated through the nasal cavity of rats using a peristaltic pump. The perfusing solution was passed through the nasal cavity, out the nostrils, through a funnel, and returned to the water-jacketed container. The perfusate was analyzed by the ANALYTICAL METHOD described above.
In this example, a 0.1 M phosphate buffer solution (pH 7.4) containing 100 µM Tyr-Phe-Met-Arg-Phe-NH₂ was administered nasally to rats as described in Example 1. The peptide was administered in the absence of inhibitor and in the presence of 2 µM boroleucine. The perfusate was analyzed by HPLC using the procedure described in Example 1 with the exception that the mobile phase was comprised of 0.1 M NaH₂PO₄:H₃PO₄:CH₃CN (200:1:60) delivered at 1.4 ml/min. Detection was by UV at 210 nm.

[2] = system: aminopeptidases; experiment: In situ nasal perfusion: degradation of 100 µM leucine enkephalin in the nasal perfusate; assay type: in vivo, Sprague-Dawley rats; details: 0.01 µM Boroleucine (title: 0.1 µM), 60 min

CC(C)CC(N)B1OC(C)(C)C(C)(C)O1 (stereo not shown) [boroleucine, 3-methyl-1(4,4,5,5-tetramethyl-1,3,2-dioxaborolane-2-yl)-1-butamine, trifluoroacetic acid salt]
Tyr-Phe-Met-Arg-Phe-NH₂ remaining intact in the nasal perfusate ([1]; 0 min): 100.0%
Tyr-Phe-Met-Arg-Phe-NH₂ remaining intact in the nasal perfusate ([1]; 5 min): 93.8%
Tyr-Phe-Met-Arg-Phe-NH₂ remaining intact in the nasal perfusate ([1]; 20 min): 84.3%
Tyr-Phe-Met-Arg-Phe-NH₂ remaining intact in the nasal perfusate ([1]; 30 min): 78.8%
Tyr-Phe-Met-Arg-Phe-NH₂ remaining intact in the nasal perfusate ([1]; 45 min): 70.5%
Tyr-Phe-Met-Arg-Phe-NH₂ remaining intact in the nasal perfusate ([1]; 60 min): 63.3%
Tyr-Phe-Met-Arg-Phe-NH₂ remaining intact in the nasal perfusate ([1]; 90 min): 49.5%
Tyr-Phe-Met-Arg-Phe-NH₂ remaining intact in the nasal perfusate ([1]; 120 min, listed as Boroleucine, trifluoroacetic acid salt): 32.9%
Tyr-Phe-Met-Arg-Phe-NH₂ remaining intact in the nasal perfusate ([1]; 120 min, trifluoroacetic acid salt): 33%
% of leucine enkephalin remaining in the nasal perfusate [2]: 88.8±2.6%

Source: patent EP0341661A2, “Peptide-drug compositions containing alpha-aminoboronic acid derivatives” (THE DU PONT MERCK PHARMACEUTICAL COMPANY, priority 1988, dated 1989)
